Measured values from patent publication US20250122218A1, “MODULATORS OF CYSTIC FIBROSIS TRANSMEMBRANE CONDUCTANCE REGULATOR” (Vertex Pharmaceuticals Incorporated, priority 2022, published 2025).

Biological target: T1, CFTR in F508del/MF-HBE cells (Homo sapiens, UniProt P13569, DEL508-508)
T1 construct: human bronchial epithelial (HBE) cells derived from CF subjects heterozygous for F508del and a minimal function CFTR mutation; endogenous in cells; host or cells: primary human bronchial epithelial cells from CF subjects (F508del/MF-HBE)
T1 sequence (P13569 with tags, fused parts or gaps DEL508-508): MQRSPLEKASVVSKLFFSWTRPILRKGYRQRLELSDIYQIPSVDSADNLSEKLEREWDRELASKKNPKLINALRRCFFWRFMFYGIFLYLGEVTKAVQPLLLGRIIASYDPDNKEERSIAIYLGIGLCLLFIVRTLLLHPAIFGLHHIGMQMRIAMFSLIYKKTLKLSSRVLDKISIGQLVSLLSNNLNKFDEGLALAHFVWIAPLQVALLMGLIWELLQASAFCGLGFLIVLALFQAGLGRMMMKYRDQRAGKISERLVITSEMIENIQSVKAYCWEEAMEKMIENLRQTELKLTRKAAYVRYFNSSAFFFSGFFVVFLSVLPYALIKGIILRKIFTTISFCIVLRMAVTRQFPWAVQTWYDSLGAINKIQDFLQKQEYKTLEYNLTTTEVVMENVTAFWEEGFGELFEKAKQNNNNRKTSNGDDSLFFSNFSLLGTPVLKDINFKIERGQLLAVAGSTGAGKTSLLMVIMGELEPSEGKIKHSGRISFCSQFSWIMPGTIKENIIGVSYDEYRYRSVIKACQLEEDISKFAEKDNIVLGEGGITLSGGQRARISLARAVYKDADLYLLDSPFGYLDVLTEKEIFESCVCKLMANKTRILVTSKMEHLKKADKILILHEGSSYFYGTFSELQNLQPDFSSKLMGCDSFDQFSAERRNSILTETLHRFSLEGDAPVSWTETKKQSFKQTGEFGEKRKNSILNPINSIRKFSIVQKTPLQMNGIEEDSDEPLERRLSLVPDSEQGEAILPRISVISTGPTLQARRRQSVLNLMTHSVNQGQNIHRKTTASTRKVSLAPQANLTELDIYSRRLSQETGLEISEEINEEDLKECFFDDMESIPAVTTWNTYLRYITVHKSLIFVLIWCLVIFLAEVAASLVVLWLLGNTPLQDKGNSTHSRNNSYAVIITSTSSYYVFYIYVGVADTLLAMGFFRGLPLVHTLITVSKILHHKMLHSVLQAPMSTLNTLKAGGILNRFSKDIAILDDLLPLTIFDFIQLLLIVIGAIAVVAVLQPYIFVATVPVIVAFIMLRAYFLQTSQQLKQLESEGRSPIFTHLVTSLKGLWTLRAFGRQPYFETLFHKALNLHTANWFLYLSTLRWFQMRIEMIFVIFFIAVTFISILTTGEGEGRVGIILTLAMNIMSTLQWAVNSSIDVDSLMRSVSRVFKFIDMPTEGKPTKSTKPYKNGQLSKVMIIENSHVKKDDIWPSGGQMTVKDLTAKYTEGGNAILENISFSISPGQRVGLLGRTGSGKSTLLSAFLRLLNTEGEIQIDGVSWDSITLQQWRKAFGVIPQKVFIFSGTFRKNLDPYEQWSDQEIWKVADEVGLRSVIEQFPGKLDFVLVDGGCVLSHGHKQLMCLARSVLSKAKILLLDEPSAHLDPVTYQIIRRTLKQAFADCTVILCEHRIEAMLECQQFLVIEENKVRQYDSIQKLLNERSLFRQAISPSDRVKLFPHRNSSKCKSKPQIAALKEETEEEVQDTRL
Assay: Ussing chamber assay of CFTR-mediated short-circuit currents (identification of potentiator compounds)
Type: cell-based
Settings: potentiator incubated 18-24 hours at 37° C. in combination with 10 μM corrector, in the presence of 20% human serum, CFTR-mediated ISC
Protocol: Ussing chamber experiments were performed using human bronchial epithelial (HBE) cells derived from CF subjects heterozygous for F508del and a minimal function CFTR mutation (F508del/MF-HBE) and cultured as previously described (Neuberger T, Burton B, Clark H, Van Goor F; Methods Mol. Biol. 2011:741:39-54). After four days the apical media was removed, and the cells were grown at an air liquid interface for >14 days prior to use.
To isolate the CFTR-mediated short-circuit (ISC) current, F508del/MF-HBE grown on Costar® Snapwell™ cell culture inserts were mounted in an Ussing chamber and the transepithelial ISC was measured under voltage-clamp recording conditions (Vhold=0 mV) at 37° C. The basolateral solution contained (in mM) 145 NaCl, 0.83 K2HPO4, 3.3 KH2PO4, 1.2 MgCl2, 1.2 CaCl2), 10 Glucose, 10 HEPES (pH adjusted to 7.4 with NaOH) and the apical solution contained (in mM) 145 NaGluconate, 1.2 MgCl2, 1.2 CaCl2), 10 glucose, 10 HEPES (pH adjusted to 7.4 with NaOH) and 30 μM amiloride to block the epithelial sodium channel. Forskolin (20 μM) was added to the apical surface to activate CFTR, followed by apical addition of a CFTR inhibitor cocktail consisting of BPO, GlyH-101 and CFTR inhibitor 172 (each at 20 μM final assay concentration) to specifically isolate CFTR currents. The CFTR-mediated ISC (μA/cm^2) for each condition was determined from the peak forskolin response to the steady-state current following inhibition.
The activity of the CFTR potentiator compounds on the CFTR-mediated ISC was determined in Ussing chamber studies as described above. The F508del/MF-HBE cell cultures were incubated with the potentiator compounds at a range of concentrations in combination with 10 μM (14S)-8-[3-(2-{dispiro[2.0.2.1]heptan-7-yl}ethoxy)-1H-pyrazol-1-yl]-12,12-dimethyl-2λ^6-thia-3,9,11,18,23-pentaazatetracyclo[17.3.1.111,14.05,10]tetracosa-1(22),5,7,9,19(23),20-hexaene-2,2,4-trione for 18-24 hours at 37° C. and in the presence of 20% human serum. The concentration of potentiator compounds and (14S)-8-[3-(2-{dispiro[2.0.2.1]heptan-7-yl}ethoxy)-1H-pyrazol-1-yl]-12,12-dimethyl-2λ^6-thia-3,9,11,18,23-pentaazatetracyclo[17.3.1.111,14.05,10]tetracosa-1(22),5,7,9,19(23),20-hexaene-2,2,4-trione used during the 18-24 hours incubations was kept constant throughout the Ussing chamber measurement of the CFTR-mediated ISC to ensure compounds were present throughout the entire experiment. The efficacy and potency of the putative F508del potentiators was compared to that of the known potentiator, ivacaftor (N-[2,4-bis(1,1-dimethylethyl)-5-hydroxyphenyl]-1,4-dihydro-4-oxoquinoline-3-carboxamide).

SMILES | EC50 [nM]
Nc1cc(C(F)(F)F)c2nc1-c1nnc(o1)C(O)(C(F)(F)F)CCCCNC2=O (single isomer, unassigned) [Compound 249, 16-amino-6-hydroxy-6,14-bis(trifluoromethyl)-18-oxa-3,4,11,17-tetrazatricyclo [11.3.1.12,5] octadeca-1(17),2,4,13,15-pentaen-12-one] | < 500
CC1(C)CCC2CCCC[C@](O)(C(F)(F)F)C3=NN=C(O3)c3nc(c(C(F)(F)F)cc3N)C(=O)N21 (single isomer, unassigned) [Compound 114] | < 500
Nc1cc(C(F)(F)F)c2nc1-c1nnc(o1)[C@@](O)(C(F)(F)F)CCCCCC1(CC1)C2=O [Compound 49, (6R)-17-amino-6-hydroxy-6,15-bis(trifluoromethyl)spiro[19-oxa-3,4,18-triazatricyclo[12.3.1.12,5]nonadeca-1(18),2,4,14,16-pentaene-12,1′-cyclopropane]-13-one] | < 500
N#CC1CCCCc2cccc(c2)C(O)(C(F)(F)F)C2=NN=C(O2)c2nc1c(C(F)(F)F)cc2N (stereo not drawn) [Compound 63, 20-amino-6-hydroxy-6,18-bis(trifluoromethyl)-23-oxa-3,4,21-triazatetracyclo[15.3.1.12,5.17,11]tricosa-1(21),2,4,7,9,11(22),17,19-octaene-16-carbonitrile] | < 500
Nc1cc(C(F)(F)F)c2nc1-c1nnc(o1)C(O)(C(F)(F)F)CCCCCCC2(O)C(F)(F)F (single isomer, unassigned) [Compound 25, 17-amino-6,13,15-tris(trifluoromethyl)-19-oxa-3,4,18-triazatricyclo[12.3.1.12,5]nonadeca-1(18),2,4,14,16-pentaene-6,13-diol] | > 1000
CC(C)(C)CCN1CCCCC[C@](O)(C(F)(F)F)C2=NN=C(O2)c2nc(c(C(F)(F)F)cc2N)C1=O [Compound 213, (6R)-17-amino-12-(3,3-dimethylbutyl)-6-hydroxy-6,15-bis(trifluoromethyl)-19-oxa-3,4,12,18-tetrazatricyclo [12.3.1.12,5] nonadeca-1(18),2,4,14,16-pentaen-13-one] | < 500
CC1CCCCC[C@](O)(C(F)(F)F)C2=NN=C(O2)c2nc(c(C(F)(F)F)cc2N)C1 (single isomer, unassigned) [Compound 55] | < 500
CC(C)(C)CN1CCCCC[C@](O)(C(F)(F)F)C2=NN=C(O2)c2nc(c(C(F)(F)F)cc2N)C1=O [Compound 80, (6R)-17-Amino-12-(2,2-dimethylpropyl)-6-hydroxy-6,15-bis (trifluoromethyl)-19-oxa-3,4,12,18-tetrazatricyclo [12.3.1.12,5] nonadeca-1(18),2,4,14,1 6-pentaen-13-one] | < 500
Nc1cc(C(F)(F)F)c2nc1-c1nnc(o1)[C@@](O)(C(F)(F)F)CCCCCN(CC(C1CC1)C1CC1)C2=O [Compound 251, (6R)-17-amino-12-(2,2-dicyclopropylethyl)-6-hydroxy-6,15-bis(trifluoromethyl)-19-oxa-3,4,12,18-tetrazatricyclo [12.3.1.12,5] nonadeca-1(18),2,4,14,16-pentaen-13-one] | > 1000
Nc1cc(C(F)(F)F)c2nc1-c1nnc(o1)[C@@](O)(C(F)(F)F)CCCCCN(C13CCC(CC1)C3)C2=O [Compound 125, (6R)-17-amino-6-hydroxy-12-norbornan-1-yl-6,15-bis (trifluoromethyl)-19-oxa-3,4,12,18-tetrazatricyclo [12.3.1.12,5] nonadeca-1(18),2,4,14,1 6-pentaen-13-one] | < 500
Nc1cc(C(F)(F)F)c2nc1-c1nnc(o1)C(O)(C(F)(F)F)CCCCCN(Cc1ccccc1)C2=O (single isomer, unassigned) [Compound 74, 17-Amino-12-benzyl-6-hydroxy-6,15-bis (trifluoromethyl)-19-oxa-3,4,12,18-tetrazatricyclo [12.3.1.12,5] nonadeca-1(18),2,4,14,1 6-pentaen-13-one] | < 500
CC(C)(C)c1cccc(CN2CCCCC[C@](O)(C(F)(F)F)C3=NN=C(O3)c3nc(c(C(F)(F)F)cc3N)C2=O)c1 [Compound 221, (6R)-17-amino-12-[(3-tert-butylphenyl)methyl]-6-hydroxy-6,15-bis(trifluoromethyl)-19-oxa-3,4,12,18-tetrazatricyclo [12.3.1.12,5] nonadeca-1(18),2,4,14,16-pentaen-13-one] | < 500
Nc1cc(C(F)(F)F)c2nc1-c1nnc(o1)[C@@](O)(C(F)(F)F)CCCCCN(Cc1cn[nH]c1)C2=O [Compound 113, (6R)-17-Amino-6-hydroxy-12-(1H-pyrazol-4-ylmethyl)-6,15-bis (trifluoromethyl)-19-oxa-3,4,12,18-tetrazatricyclo [12.3.1.12,5] nonadeca-1(18),2,4,14,1 6-pentaen-13-one] | > 1000
Nc1cc(C(F)(F)F)c2nc1-c1nnc(o1)C(O)(C(F)(F)F)CCCCCCC2 (single isomer, unassigned) [Compound 2, 17-amino-6,15-bis(trifluoromethyl)-19-oxa-3,4,18-triazatricyclo[12.3.1.12,5]nonadeca-1(18),2,4,14,16-pentaen-6-ol] | < 500
Nc1cc(C(F)(F)F)c2nc1-c1nnc(o1)C(O)(C(F)(F)F)CCCCCCC2(O)C(F)(F)F (single isomer, unassigned) [Compound 28, 17-amino-6,13,15-tris(trifluoromethyl)-19-oxa-3,4,18-triazatricyclo[12.3.1.12,5]nonadeca-1(18),2,4,14,16-pentaene-6,13-diol] | > 1000
CC(C)c1cccc(CN2CCCCC[C@](O)(C(F)(F)F)C3=NN=C(O3)c3nc(c(C(F)(F)F)cc3N)C2=O)c1 [Compound 139, (6R)-17-amino-6-hydroxy-12-[(3-isopropylphenyl)methyl]-6,15-bis (trifluoromethyl)-19-oxa-3,4,12,18-tetrazatricyclo [12.3.1.12,5] nonadeca-1(18),2,4,14,1 6-pentaen-13-one] | < 500
COc1ccc(CN2CCCCC[C@](O)(C(F)(F)F)C3=NN=C(O3)c3nc(c(C(F)(F)F)cc3N)C2=O)cc1F [Compound 160, (6R)-17-amino-12-[(3-fluoro-4-methoxy-phenyl)methyl]-6-hydroxy-6,15-bis (trifluoromethyl)-19-oxa-3,4,12,18-tetrazatricyclo [12.3.1.12,5] nonadeca-1(18),2,4,14,1 6-pentaen-13-one] | < 500
Nc1cc(C(F)(F)F)c2nc1-c1nnc(o1)C(O)(C(F)(F)F)CCCCCCC2O (single isomer, unassigned) [Compound 11, 17-amino-6,15-bis(trifluoromethyl)-19-oxa-3,4,18-triazatricyclo[12.3.1.12,5]nonadeca-1(18),2,4,14,16-pentaene-6,13-diol] | > 1000
Nc1cc(C(F)(F)F)c2nc1-c1nnc(o1)[C@@](O)(C(F)(F)F)CCCCCN(C13CC(F)(C1)C3)C2=O [Compound 121, (6R)-17-Amino-12-(3-fluoro-1-bicyclo[1.1.1]pentanyl)-6-hydroxy-6,15-bis (trifluorom ethyl)-19-oxa-3,4,12,18-tetrazatricyclo [12.3.1.12,5] nonadeca-1(18),2,4,14,1 6-pentaen-13-one] | < 500
Nc1cc(C(F)(F)F)c2nc1-c1nnc(o1)[C@@](O)(C(F)(F)F)CCCCCN(CC1CCCOC1)C2=O (mixture of isomers) [Compound 131, (6R)-17-Amino-6-hydroxy-12-(tetrahydropyran-3-ylmethyl)-6,15-bis (trifluoromethyl)-19-oxa-3,4,12,18-tetrazatricyclo [12.3.1.12,5] nonadeca-1(18),2,4,14,1 6-pentaen-13-one] | < 500
Nc1cc(C(F)(F)F)c2nc1-c1nnc(o1)C(O)(C(F)(F)F)CCCCN(C1CC(F)(F)C1)C2=O (single isomer, unassigned) [Compound 198, 16-amino-11-(3,3-difluorocyclobutyl)-6-hydroxy-6,14-bis(trifluoromethyl)-18-oxa-3,4,11,17-tetrazatricyclo[11.3.1.12,5]octadeca-1(17),2,4,13,15-pentaen-12-one] | < 500
